Experiments:
MDA-MB-435 = assay: Cytotoxicity against human MDA-MB-435 cells assessed as reduction in cell viability by MTT assay; format: functional, cell-based
A549 = assay: Cytotoxicity against human A549 cells assessed as reduction in cell viability by MTT assay; format: functional, cell-based

Row | SMILES | IC50 (MDA-MB-435) | IC50 (A549)
1 | CCC(=O)Oc1cc(C)cc(Oc2cc(C)cc(OC)c2)c1 | 31.9 µM | –
2 | COc1cc(C)cc(Oc2cc(C)cc(OC)c2)c1 | 12.5 µM | –
3 | CC(C)(c1ccc(O)cc1)c1ccc(OCC(O)COc2ccc(C(C)(C)c3ccc(O)cc3)cc2)cc1 | 22.3 µM | 18.4 µM
4 | COc1cc(C)cc(Oc2cc(C)cc(O)c2)c1 [CORDYOL E] | 41.1 µM | –

From ChEMBL document CHEMBL4342447, “l-Phenylalanine Alters the Privileged Secondary Metabolite Production in the Marine-Derived Fungus Trichoderma erinaceum F1-1” (J Nat Prod, 2020)
